# From patent US20230270721A1, “INHIBITION OF BAX-MEDIATED CELL DEATH BY ELTROMBOPAG” (Albert Einstein College of Medicine, priority 2020, published 2023)
# Where two headings read alike, the source gives them in different places.
# Tests used:
# BAX = molecular target: T1, BAX (Homo sapiens, UniProt Q07812); test: Liposomal permeabilization (ANTS/DPX release) assay; assay type: biochemical; conditions: for IC50: 30 minutes
# T1 construct: Human full-length (1-192) wild-type BAX (Q07812); made in house; host or cells: E. coli BL21 (DE3) CodonPlus (DE3)-RIPL
# Protocol: Lipids (Avanti Polar Lipids) at the following ratio, phosphatidylcholine 48%, phosphatidylinositol 10%, dioleoyl phosphatidylserine 10%, phosphatidylethanolamine, 28%, and tetraoleoyl cardiolipin 4%, were mixed in a total of 1 mg, dried and resuspended in 10 mM HEPES, pH 7, 200 mM KCI, and 5 mM MgCl2 with 12.5 mM 8-aminonaphthalene-1,3,6-trisulfonic acid (ANTS) dye and 45 mM p-xylene-bis-pyridinium bromide (DPX) quencher (Molecular Probes) using a water bath sonicator. Liposomes were formed by extrusion of the suspension using Avanti Mini-Extruder (Cat # 610000) with polycarbonate membranes of 0.1 µm pore size (Avanti Polar Lipids). ANTS/DPX encapsulated liposomes were purified from non-encapsulated ANTS/DPX by gel filtration of a 10 mL CL2B-Sepharose (GE Healthcare Life Sciences) gravity-flow column. BAX (50-250 nM) was combined with tBID, BIM, and EO at the indicated concentrations to a volume of 90 µL. Reactions were initiated by the addition of […] of the encapsulated ANTS/DPX liposome stock. ANTS/DPX release was quantified based on the increase in fluorescence intensity that occurs when the ANTS fluorophore is separated from the DPX quencher upon release from the liposomes into solution. Fluorescence (λex = 355 nm and λem = 520 nm) was measured at 1 minute intervals at room temperature (22-25° C.) indicated using a Tecan Infinite M1000 plate reader. In the case of heat activation, reactions were set up as described in the absence of tBID or BIM, and experiments were recorded at 42° C. The percentage release of ANTS/DPX at any given time point was calculated as percentage release=((F-F0)/(F100-F0))(100), where F0 and F100 are baseline and maximal fluorescence, respectively. Triton X-100 (1%) was used to determine the maximum amount of liposomal release per assay and was set to 100%.
# Next, EO’s capacity to modulate BAX activity was evaluated using liposomal release assays. […] Instead, EO was able to inhibit both tBID- and BIM BH3-mediated BAX activation (FIGS. 1E, 1F, and 1G). Inhibition of tBID-mediated BAX activation by EO was inversely proportional to the concentration of the tBID activator, consistent with competitive inhibition of BH3-activator binding.
# BAX in BAK KO MEFs = molecular target: T2, BAX in BAK KO MEFs (Mus musculus, UniProt Q07813); test: Cellular Thermal Shift Assay (CETSA); assay type: cell-based; conditions: 10 pM EO, 2 hours
# T2 construct: endogenous in cells; host or cells: BAK KO mouse embryonic fibroblasts
# Protocol: BAK KO MEFs were seeded in a 10 cm dish for 18-24 hours or until approximately 80% confluent. The media was removed and replaced with media lacking FBS, and cells were treated with 10 pM EO as a 10X stock in H2O or vehicle for 2 hours. The media was then removed, and cells were harvested using a cell scraper and washed twice with PBS. Cells were then resuspended in PBS to 6×10^6 cells/mL, and […] was transferred to PCR tubes. Cells were then heated in a Biorad C1000 Touch Thermal Cycler for 3 minutes using a temperature gradient (50, 52.1, 55.4, 59.4, 64.9, 69.2, 72.1, and 74° C.). Cells remaining at room temperature (25° C.) served as a control. All cells were lysed by three cycles of freeze-thawing using liquid nitrogen. Samples were then centrifuged at 2×10^4 g for 15 minutes. The supernatants were collected and resolved by SDS-PAGE with an N-terminal BAX antibody (Cell Signaling, 2772S). Samples were analyzed and quantified using a Li-Cor Odyssey Clx and normalized to 25° C. (100%) and 74° C.(0%).
# To confirm direct engagement of BAX, Cellular Thermal Shift Assay (CETSA) was performed in BAK KO MEFs.
# 3T3 cells = test: Cell viability assay (CellTiter-Glo), ABT-263 + S63845; assay type: cell-based, murine; conditions: 1 µM ABT-263 and 1 µM S63845, 24 hr
# Protocol: 3T3 cells were maintained in media identical to that of MEFs. 3T3 cells were seeded (1×10^4 cells/well) in 96-well opaque plates for 18-24 hr. The media was removed and replaced with media lacking FBS, and cells were treated with EO as a 10X stock in H2O at the indicated doses for 2 hr before addition of 10% FBS. Cells were then treated with 1 µM each of ABT-263 and S63845. Caspase 3/7 activation was measured at 4 hr by addition of the Caspase-Glo 3/7 chemiluminescence reagent in accordance with the manufacturer’s protocol (Promega). Luminescence was detected by an F200 PRO microplate reader (TECAN). Percentage caspase activation was normalized to ABT-263 + S63845 alone (100%) and untreated cells (0%). Viability assays were performed at 24 hr by addition of CellTiter-Glo according to the manufacturer’s protocol (Promega). Luminescence was detected by an F200 PRO microplate reader (TECAN). Percentage viability was normalized to untreated cells (100%).
# Next, whether EO is capable of rescuing cell death in cells expressing both BAX and BAK was determined. 3T3 cells, a murine fibroblast cell line, were treated with a combination of BH3-mimetics navitoclax (ABT-263) and S63845, which only in combination cause significant cytotoxicity in fibroblast cells.
# [1] = cited from earlier work
# T1 sequence (Q07812 whole entry): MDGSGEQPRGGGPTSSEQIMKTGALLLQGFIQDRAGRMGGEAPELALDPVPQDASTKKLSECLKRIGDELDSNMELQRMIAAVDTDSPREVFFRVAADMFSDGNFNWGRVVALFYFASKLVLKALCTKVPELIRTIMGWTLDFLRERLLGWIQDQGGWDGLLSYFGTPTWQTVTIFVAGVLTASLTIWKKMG
# T2 sequence (Q07813 whole entry): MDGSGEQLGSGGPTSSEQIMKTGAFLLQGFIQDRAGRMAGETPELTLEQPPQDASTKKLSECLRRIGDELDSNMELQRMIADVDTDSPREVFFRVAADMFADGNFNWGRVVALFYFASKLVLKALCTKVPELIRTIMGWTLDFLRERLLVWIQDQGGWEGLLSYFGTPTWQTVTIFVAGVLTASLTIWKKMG
compound,measurement,setting,value
"CC1=NN(c2ccc(C)c(C)c2)C(=O)/C1=N\Nc1cccc(-c2cccc(C(=O)O)c2)c1O [EO, eltrombopag]",IC50,"BAX; 50 nM BAX and 5 nM tBID, read-out: tBID IC50, inhibition of BAX activity in liposomal release",2.4 µM
same,IC50,"BAX; 50 nM BAX, read-out: BIM IC50, inhibition of BAX activity in liposomal release",4.7 µM
same,IC50,"BAX; 250 nM BAX at 42° C., read-out: heat IC50, inhibition of BAX activity in liposomal release",4.5 µM
same,ability to activate BAX in liposomal release assay,"BAX; concentrations up to 10 µM, no activator",no ability to activate BAX
same,lowering of BAX TM (CETSA),BAX in BAK KO MEFs,9 °C
same,cell viability,3T3 cells,dose-dependent rescue of cell viability
same,time of peak concentration,[1]; after oral administration,2 to 6 h
same,oral bioavailability,"[1]; in vivo, po",excellent oral bioavailability
same,half-life,[1]; oral administration,21 to 32 h
